In the supplement of paper PMC11061612 one finds Bliss excess data, which are given here for 3 compounds.

Experiment in all cases: Bliss excess, mean over the matrix (fraction); higher = more synergy
Experiment [1] deals with SK-GT-4 (Esophageal Adenocarcinoma). Put shortly:
(§1)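 Cell lines grown in DMEM/F12 or RPMI with 10% FBS were plated in 1536-well plates and held 24 hours at 37°C, 5% CO2 before 72 hours of exposure to two-drug dose matrices, with DMSO typically at 0.2%. CellTiter-Glo 2.0 luminescence gave viability, which was converted to inhibition. Vehicle wells were set to 0 and blank wells to 1. Combination Emax is the second-highest inhibition in the matrix, and Bliss excess is the observed combination effect minus the expected EA + EB − EA·EB, where EA and EB are the single-agent effects.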

Experiment [2] deals with VMRC-RCZ (Kidney Carcinoma). Put shortly:
as §1

In experiment [3] the test system is DMS-114 (Small Cell Lung Carcinoma). In short, it runs like this: as §1
Experiment [4] has as its system KYSE-270 (Esophageal Squamous Cell Carcinoma). Put shortly:
as §1

Experiment [5] concerns MN-60 (B-Lymphoblastic Leukemia). Put shortly:
as §1

The next experiment deals with NCI-H2731 (Mesothelioma). Put shortly:
as §1

For a further experiment, the system named is SJSA-1 (Osteosarcoma). In short, it runs like this: as §1
The subject of another experiment is M059J (Glioblastoma). In short, it runs like this:
as §1

Experiment [6] has as its system ST486 (Burkitt's Lymphoma). Put shortly:
as §1

In experiment [7] the test system is KP-3 (Pancreatic Carcinoma). In short, it runs like this:
as §1

For experiment [8], the system named is NCI-H520 (Squamous Cell Lung Carcinoma). Put shortly: as §1
For experiment [9], the system named is NCI-H3122 (Lung Adenocarcinoma). In short, it runs like this: as §1
Experiment [10] relates to T-T (Esophageal Squamous Cell Carcinoma). Put shortly: as §1
The subject of experiment [11] is NCI-H929 (Plasma Cell Myeloma). Put shortly: as §1
Experiment [12] concerns CW-2 (Colorectal Carcinoma). In short, it runs like this: as §1
Experiment [13] concerns MOG-G-CCM (Low Grade Glioma). Put shortly:
as §1

The test system of experiment [14] is KU812 (Chronic Myelogenous Leukemia). In short, it runs like this: as §1
In experiment [15] the test system is NCCIT (Other Solid Carcinomas). In short, it runs like this:
as §1

The subject of experiment [16] is COR-L279 (Small Cell Lung Carcinoma). In short, it runs like this: as §1
Experiment [17] relates to NCI-H526 (Small Cell Lung Carcinoma). Put shortly:
as §1

In the case of `O=C(c1cc(Cc2n[nH]c(=O)c3ccccc23)ccc1F)N1CCN(C(=O)C2CC2)CC1` [Olaparib] + CC1(C)CCC(CN2CCN(c3ccc(C(=O)NS(=O)(=O)c4ccc(NCC5CCOCC5)c([N+](=O)[O-])c4)c(Oc4cnc5[nH]ccc5c4)c3)CC2)=C(c2ccc(Cl)cc2)C1 [Venetoclax] (first compound max 10 µM, 7x7, partner max 1 µM), the Bliss excess was -0.056 in [1]; -0.052 in experiment [2]; -0.0446 in experiment [3]; -0.0027 in experiment [4]; -0.0502 in [5]; -0.047 in the experiment with NCI-H2731 (Mesothelioma). Moreover, the Bliss excess with SJSA-1 (Osteosarcoma) is -0.0375; in the experiment on M059J (Glioblastoma), -0.0001; in [6], -0.0134; in experiment [7] it was -0.0562; in experiment [8] it was -0.0201; in experiment [9], -0.0681. In addition, the Bliss excess is -0.0375 in experiment [10]; -0.0036 in experiment [11]; -0.0299 in experiment [12]; -0.0459 in experiment [13]; -0.0241 in [14]; 0.0127 in [15]. The Bliss excess in experiment [16] was 0.0109; in experiment [17], 0.0372.
Consider `C=CCn1c(=O)c2cnc(Nc3ccc(N4CCN(C)CC4)cc3)nc2n1-c1cccc(C(C)(C)O)n1` [AZD1775] + CCc1c2c(nc3ccc(O)cc13)-c1cc3c(c(=O)n1C2)COC(=O)[C@]3(O)CC [SN-38] (first compound max 1 µM, partner max 0.3 µM), for which the Bliss excess in [1] is 0.0211; in [2], -0.0623; in experiment [3], -0.0439; in experiment [4], 0.0029; in experiment [5], -0.0244; in the experiment with NCI-H2731 (Mesothelioma), -0.0744. In addition, the Bliss excess with SJSA-1 (Osteosarcoma) is -0.0742; in the experiment on M059J (Glioblastoma) it was 0.0051; in experiment [6], -0.0359; in experiment [7], -0.067; in experiment [8], -0.0637; in experiment [9], -0.0233. The Bliss excess in experiment [10] was -0.031; in [11], -0.0303; in experiment [12], -0.0515; in experiment [13], -0.053; in experiment [14], -0.0318; in experiment [15], -0.0342. Moreover, the Bliss excess was -0.0425 in experiment [16] and -0.0476 in [17].
As for `Cc1nc(-c2cn3c(n2)-c2ccc(-c4cnn(C(C)(C)C(N)=O)c4)cc2OCC3)n(C(C)C)n1` [Taselisib] + O=C(Nc1ccc2[nH]nc(-c3ccncc3)c2c1)[C@@H]1CCN(CC(=O)N2CCN(c3ccc(-c4ncccn4)cc3)CC2)C1 [SCH772984] (first compound max 10 µM, 7x7, partner max 5 µM), the Bliss excess in experiment [1] was 0.0428; in experiment [2] it was 0.0004; in experiment [3], 0.005; in experiment [4], 0.0577; in experiment [5], -0.026; with NCI-H2731 (Mesothelioma), 0.0323. For the same compound, the Bliss excess in the experiment on SJSA-1 (Osteosarcoma) is 0.0019; with M059J (Glioblastoma), 0.0027; in experiment [6], 0.0569; in experiment [7], 0.0368; in experiment [8], 0.0461; in [9], 0.126. In addition, the Bliss excess was 0.133 in experiment [10]; 0.0344 in [11]; 0.0458 in experiment [12]; -0.0727 in experiment [13]; 0.0569 in [14]; -0.032 in experiment [15]. Moreover, the Bliss excess stood at 0.0833 in experiment [16] and 0.0117 in [17].
